Reference: US20130053310A1 (NOVO NORDISK A/S, priority 2010, published 2013)
Entries after “also recorded” stand apart in the source; their conditions may differ. Peptide text beside a SMILES is read from it.

Assays:
glucagon receptor = target: T1, glucagon receptor (Homo sapiens, UniProt P47871); experiment: Assay (I) Glucagon activity: cAMP biosensor (ACTOne) FLIPR assay in HEK-293 cells with cloned glucagon receptor; format: cell-based
T1 construct: expressed in transfected cells
Procedure: The cells (14000 per well) were incubated (37° C., 5% CO2) overnight in 384-well plates. Next day the cells were loaded with a calcium responsive dye that only distributed into the cytoplasm. Probenecid, an inhibitor of the organic anion transporter, was added to prevent the dye from leaving the cell. A PDE inhibitor was added to prevent formatted cAMP from being degraded. […] End point data were collected after 6 minutes. An increase in intracellular cAMP was proportional to an increased in calcium concentrations in the cytoplasm. When calcium was bound the dry a fluorescence signal was generated. EC50-values were calculated in Prism5.

[1] = Assay (II) ThT fibrillation assay for physical stability; format: physicochemical; conditions: shaking 960 rpm; for Assay (II) (pH 4.0) Lag time (hours): ThT fibrillation assay, pH 4.0, 250 μM, 10 mM glycylglycine, 45 hours at 37° C.
Excerpt: This has traditionally been measured by visual inspection of the sample. However, that kind of measurement is very subjective and depending on the observer. Therefore, the application of a small molecule indicator probe is much more advantageous.
Here, F is the ThT fluorescence at the time t. The constant t0 is the time needed to reach 50% of maximum fluorescence.
Few of those intermediates nucleate to form a template onto which further intermediates may assembly and the fibrillation proceeds. The lag-time corresponds to the interval in which the critical mass of nucleus is built up and the apparent rate constant is the rate with which the fibril itself is formed.
Samples were prepared freshly before each assay. […] The pH of the sample was adjusted to the desired value using appropriate amounts of concentrated NaOH and HCl. Thioflavin T was added to the samples from a stock solution in H2O to a final concentration of 1 μM.
The plate was sealed with Scotch Pad (Qiagen).
Each run was initiated by incubating the plate at the assay temperature for 10 min. The plate was measured every 20 minutes for a desired period of time. Between each measurement, the plate was shaken and heated as described.
The supernatant was filtered through a 0.22 μm filter and an aliquot was transferred to a HPLC vial.
The measurement points were saved in Microsoft Excel format for further processing and curve drawing and fitting was performed using GraphPad Prism.
The data set may be fitted to Eq. (1).

T1 sequence (P47871 26-477): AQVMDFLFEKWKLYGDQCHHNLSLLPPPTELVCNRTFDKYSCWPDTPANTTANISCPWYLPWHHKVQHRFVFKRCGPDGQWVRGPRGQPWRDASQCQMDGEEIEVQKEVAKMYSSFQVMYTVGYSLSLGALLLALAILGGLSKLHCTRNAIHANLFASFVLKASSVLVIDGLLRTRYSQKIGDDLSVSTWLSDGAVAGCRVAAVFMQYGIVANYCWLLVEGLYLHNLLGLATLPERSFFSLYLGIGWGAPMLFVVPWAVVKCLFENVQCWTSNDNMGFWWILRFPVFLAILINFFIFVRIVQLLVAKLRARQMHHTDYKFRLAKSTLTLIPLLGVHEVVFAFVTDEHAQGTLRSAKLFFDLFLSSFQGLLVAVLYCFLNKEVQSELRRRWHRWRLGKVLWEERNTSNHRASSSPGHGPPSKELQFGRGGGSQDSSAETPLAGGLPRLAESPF

| Structure (SMILES) | EC50 (glucagon receptor) | ThT emission / fibrillation upon physical stress ([1]; 250 μM in 1 μM ThT, 10 mM glycylglycine buffer pH 4.0, 45 hours at 37° C.) | Assay (II) (pH 4.0) Lag time (hours) [1] |
| --- | --- | --- | --- |
| CC(C)C[C@H](NC(=O)[C@H](Cc1ccc(O)cc1)NC(=O)[C@H](CCCCN)NC(=O)[C@H](CO)NC(=O)[C@H](Cc1ccc(O)cc1)NC(=O)[C@H](CC(=O)O)NC(=O)[C@H](CO)NC(=O)[C@@H](NC(=O)[C@H](Cc1ccccc1)NC(=O)[C@@H](NC(=O)CNC(=O)[C@H](CCC(N)=O)NC(=O)[C@H](CO)NC(=O)[C@@H](N)Cc1c[nH]cn1)[C@@H](C)O)[C@@H](C)O)C(=O)N[C@@H](CC(=O)O)C(=O)N[C@@H](CO)C(=O)N[C@@H](CCCNC(=N)N)C(=O)N[C@@H](CCCNC(=N)N)C(=O)N[C@@H](C)C(=O)N[C@@H](CCC(N)=O)C(=O)N[C@@H](CCC(=O)O)C(=O)N[C@@H](Cc1ccccc1)C(=O)N[C@H](C(=O)N[C@@H](CCC(N)=O)C(=O)N[C@@H](CCCNC(=N)N)C(=O)N[C@@H](CC(C)C)C(=O)N[C@@H](CC(C)C)C(=O)N[C@@H](CC(N)=O)C(=O)N[C@H](C(=O)O)[C@@H](C)O)C(C)C [Example 1, [Glu^21, Arg^25, Leu^27]Glucagon] | 0.017 nM | does not fibrillate; also recorded: no ThT emission occurred | – |
| CC(C)C[C@H](NC(=O)[C@H](Cc1ccc(O)cc1)NC(=O)[C@H](CCCCN)NC(=O)[C@H](CO)NC(=O)[C@H](Cc1ccc(O)cc1)NC(=O)[C@H](CC(=O)O)NC(=O)[C@H](CO)NC(=O)[C@@H](NC(=O)[C@H](Cc1ccccc1)NC(=O)[C@@H](NC(=O)CNC(=O)[C@H](CCC(N)=O)NC(=O)[C@H](CO)NC(=O)[C@@H](N)Cc1c[nH]cn1)[C@@H](C)O)[C@@H](C)O)C(=O)N[C@@H](CC(=O)O)C(=O)N[C@@H](CO)C(=O)N[C@@H](CCCNC(=N)N)C(=O)N[C@@H](CCCNC(=N)N)C(=O)N[C@@H](C)C(=O)N[C@@H](CCC(N)=O)C(=O)N[C@@H](CC(=O)O)C(=O)N[C@@H](Cc1ccccc1)C(=O)N[C@H](C(=O)N[C@@H](CCC(N)=O)C(=O)N[C@@H](Cc1ccc(OP(=O)(O)O)cc1)C(=O)N[C@@H](CC(C)C)C(=O)N[C@@H](CC(C)C)C(=O)N[C@@H](CC(N)=O)C(=O)N[C@H](C(=O)O)[C@@H](C)O)C(C)C [Example 2, [(O-phosphono)Tyr^25,Leu^27]Glucagon] | 0.017 nM | – | – |
| CC(C)C[C@H](NC(=O)[C@H](Cc1ccc(O)cc1)NC(=O)[C@H](CCCCN)NC(=O)[C@H](CO)NC(=O)[C@H](Cc1ccc(O)cc1)NC(=O)[C@H](CC(=O)O)NC(=O)[C@H](CO)NC(=O)[C@@H](NC(=O)[C@H](Cc1ccccc1)NC(=O)[C@@H](NC(=O)CNC(=O)[C@H](CCC(N)=O)NC(=O)[C@H](CO)NC(=O)[C@@H](N)Cc1c[nH]cn1)[C@@H](C)O)[C@@H](C)O)C(=O)N[C@@H](CC(=O)O)C(=O)N[C@@H](CO)C(=O)N[C@@H](CCCNC(=N)N)C(=O)N[C@@H](CCCNC(=N)N)C(=O)N[C@@H](C)C(=O)N[C@@H](CCC(N)=O)C(=O)N[C@@H](CC(=O)O)C(=O)N[C@@H](Cc1ccccc1)C(=O)N[C@H](C(=O)N[C@@H](CCC(N)=O)C(=O)N[C@@H](CCCNC(=N)N)C(=O)N[C@@H](CC(C)C)C(=O)N[C@@H](CC(C)C)C(=O)N[C@@H](CC(N)=O)C(=O)N[C@H](C(=O)O)[C@@H](C)O)C(C)C [Example 5, [Arg^25, Leu^27]-Glucagon] | 0.057 nM | – | > 45 hours |
| CC(C)C[C@H](NC(=O)[C@H](Cc1ccc(O)cc1)NC(=O)[C@H](CCCCN)NC(=O)[C@H](CO)NC(=O)[C@H](Cc1ccc(O)cc1)NC(=O)[C@H](CC(=O)O)NC(=O)[C@H](CO)NC(=O)[C@@H](NC(=O)[C@H](Cc1ccccc1)NC(=O)[C@@H](NC(=O)CNC(=O)[C@H](CCC(N)=O)NC(=O)[C@H](CO)NC(=O)[C@@H](N)Cc1c[nH]cn1)[C@@H](C)O)[C@@H](C)O)C(=O)N[C@@H](CC(=O)O)C(=O)N[C@@H](CO)C(=O)N[C@@H](CCCNC(=N)N)C(=O)N[C@@H](CCCNC(=N)N)C(=O)N[C@@H](C)C(=O)N[C@@H](CCC(N)=O)C(=O)N[C@@H](CCC(=O)O)C(=O)N[C@@H](Cc1ccccc1)C(=O)N[C@H](C(=O)N[C@@H](CCC(N)=O)C(=O)N[C@@H](CCCNC(=N)N)C(=O)N[C@@H](CC(C)C)C(=O)N[C@@H](CC(C)C)C(=O)N[C@@H](CO)C(=O)N[C@H](C(=O)O)[C@@H](C)O)C(C)C [Example 6, [Glu^21, Arg^25, Leu^27, Ser^28]-Glucagon] | 0.026 nM | – | > 45 hours |
| CC(C)C[C@H](NC(=O)[C@H](Cc1ccc(O)cc1)NC(=O)[C@H](CCCCN)NC(=O)[C@H](CO)NC(=O)[C@H](Cc1ccc(O)cc1)NC(=O)[C@H](CC(=O)O)NC(=O)[C@H](CO)NC(=O)[C@@H](NC(=O)[C@H](Cc1ccccc1)NC(=O)[C@@H](NC(=O)CNC(=O)[C@H](CCC(N)=O)NC(=O)[C@H](CO)NC(=O)[C@@H](N)Cc1c[nH]cn1)[C@@H](C)O)[C@@H](C)O)C(=O)N[C@@H](CC(=O)O)C(=O)N[C@@H](CO)C(=O)N[C@@H](CCCNC(=N)N)C(=O)N[C@@H](CCCNC(=N)N)C(=O)N[C@@H](C)C(=O)N[C@@H](CCC(N)=O)C(=O)N[C@@H](CC(=O)O)C(=O)N[C@@H](Cc1ccccc1)C(=O)N[C@H](C(=O)N[C@@H](CCC(N)=O)C(=O)N[C@@H](Cc1c[nH]cn1)C(=O)N[C@@H](CC(C)C)C(=O)N[C@@H](CC(C)C)C(=O)N[C@@H](CC(N)=O)C(=O)N[C@H](C(=O)O)[C@@H](C)O)C(C)C [Example 7, [His^25, Leu^27]-Glucagon] | 0.019 nM | – | > 45 hours |
| CC(C)C[C@H](NC(=O)[C@H](Cc1ccc(O)cc1)NC(=O)[C@H](CCCCN)NC(=O)[C@H](CO)NC(=O)[C@H](Cc1ccc(O)cc1)NC(=O)[C@H](CC(=O)O)NC(=O)[C@H](CO)NC(=O)[C@@H](NC(=O)[C@H](Cc1ccccc1)NC(=O)[C@@H](NC(=O)CNC(=O)[C@H](CCC(N)=O)NC(=O)[C@H](CO)NC(=O)[C@@H](N)Cc1c[nH]cn1)[C@@H](C)O)[C@@H](C)O)C(=O)N[C@@H](CC(=O)O)C(=O)N[C@@H](CO)C(=O)N[C@@H](CCCNC(=N)N)C(=O)N[C@@H](CCCNC(=N)N)C(=O)N[C@@H](C)C(=O)N[C@@H](CCC(N)=O)C(=O)N[C@@H](CC(=O)O)C(=O)N[C@@H](Cc1ccccc1)C(=O)N[C@H](C(=O)N[C@@H](CCC(N)=O)C(=O)N[C@@H](CCCCN)C(=O)N[C@@H](CC(C)C)C(=O)N[C@@H](CC(C)C)C(=O)N[C@@H](CC(N)=O)C(=O)N[C@H](C(=O)O)[C@@H](C)O)C(C)C [Example 8, [Lys^25, Leu^27]-Glucagon] | 0.1 nM | – | > 45 hours |
| CC(C)C[C@H](NC(=O)[C@H](Cc1ccc(O)cc1)NC(=O)[C@H](CCCCN)NC(=O)[C@H](CO)NC(=O)[C@H](Cc1ccc(O)cc1)NC(=O)[C@H](CC(=O)O)NC(=O)[C@H](CO)NC(=O)[C@@H](NC(=O)[C@H](Cc1ccccc1)NC(=O)[C@@H](NC(=O)CNC(=O)[C@H](CCC(N)=O)NC(=O)[C@H](CO)NC(=O)[C@@H](N)Cc1c[nH]cn1)[C@@H](C)O)[C@@H](C)O)C(=O)N[C@@H](CC(=O)O)C(=O)N[C@@H](CO)C(=O)N[C@@H](CCCNC(=N)N)C(=O)N[C@@H](CCCNC(=N)N)C(=O)N[C@@H](C)C(=O)N[C@@H](CCC(N)=O)C(=O)N[C@@H](CCC(=O)O)C(=O)N[C@@H](Cc1ccccc1)C(=O)N[C@H](C(=O)N[C@@H](CCC(N)=O)C(=O)N[C@@H](CCCCN)C(=O)N[C@@H](CC(C)C)C(=O)N[C@@H](CC(C)C)C(=O)N[C@@H](CC(N)=O)C(=O)N[C@H](C(=O)O)[C@@H](C)O)C(C)C [Example 9, [Glu^21, Lys^25, Leu^27]-Glucagon] | 0.043 nM | – | > 45 hours |
| CC(C)C[C@H](NC(=O)[C@H](Cc1ccc(O)cc1)NC(=O)[C@H](CCCCN)NC(=O)[C@H](CO)NC(=O)[C@H](Cc1ccc(O)cc1)NC(=O)[C@H](CC(=O)O)NC(=O)[C@H](CO)NC(=O)[C@@H](NC(=O)[C@H](Cc1ccccc1)NC(=O)[C@@H](NC(=O)CNC(=O)[C@H](CCC(N)=O)NC(=O)[C@H](CO)NC(=O)[C@@H](N)Cc1c[nH]cn1)[C@@H](C)O)[C@@H](C)O)C(=O)N[C@@H](CCC(=O)O)C(=O)N[C@@H](CO)C(=O)N[C@@H](CCCNC(=N)N)C(=O)N[C@@H](CCCNC(=N)N)C(=O)N[C@@H](C)C(=O)N[C@@H](CCC(N)=O)C(=O)N[C@@H](CCC(=O)O)C(=O)N[C@@H](Cc1ccccc1)C(=O)N[C@H](C(=O)N[C@@H](CCC(N)=O)C(=O)N[C@@H](CCCNC(=N)N)C(=O)N[C@@H](CC(C)C)C(=O)N[C@@H](CC(C)C)C(=O)N[C@@H](CC(N)=O)C(=O)N[C@H](C(=O)O)[C@@H](C)O)C(C)C [Example 10, [Glu^15, Glu^21, Arg^25, Leu^27]-Glucagon] (H-HSQGTFTSDYSKYLESRRAQEFVQRLLNT-OH) | 0.266 nM | – | > 45 hours |
